The source of these data is patent US20250263408A1 (Uniquest Pty Ltd, priority 2022, published 2025).

In assay [1] the test system is Ba/F3-WT (wild type) cells. Kind of assay: Ba/F3 Proliferation Assay, Ba/F3-WT (wild type) cells with mIL-3 (Resazurin). Type of assay: cell-based. The settings on record: Mus musculus, BaF3, 48 h, Ba/F3-WT cells +mIL-3, 48-hour incubation. As to the method:
(§1) Ba/F3-Syk and Ba/F3-WT (wild type) cells were maintained at ≤1×10^6 cell/mL in RPMI (Life Technologies) with 10% FBS at 37° C. and 5% CO2 for a maximum of four weeks. Ba/F3-WT additionally contained 2 ng/mL mIL-3 (R&D Systems) to induce cellular growth. Cells were counted and dispensed at 5000 cells/well using a Multidrop Liquid Dispenser in a volume of 45 μL into black 384-well TC treated plates (Greiner) and incubated for four hours in complete media (+mIL-3 for Ba/F3-WT). Compounds were serially diluted in 100% DMSO, prior to an intermediate dilution in RPMI media. 5 μL of compound (0.4% final DMSO) was added to the cells, followed by a 48-hour incubation period. 5 μL of Resazurin (60 μM final) was then added and cells were incubated at 37° C. for three hours, before fluorescence (λex530/λem585) was measured using an Ensight Multimode Plate Reader (Perkin Elmer).

Assay [2] concerns the target T1, Ba/F3-Syk cells (Homo sapiens, UniProt P43405).
T1 construct: fused on or other part: Possible but unprinted fusion partner: TEL (ETV6), the usual partner for Ba/F3 lines transformed by Syk; Nothing on a partner is printed
In words: Ba/F3 Proliferation Assay, Ba/F3-Syk cells (Resazurin). The settings on record: 48-hour incubation. Type of assay: cell-based. As to the method:
as §1
Background: Resazurin is reduced to fluorescent resorufin, in cell work by metabolically active cells.

pEC50: −log10 of the molar value.

Broadly, the pEC50 is −log10 of the EC50, conventionally taken in molar units. With `CCn1ccc(-c2cc3ncccc3c(O[C@H](C)[C@@H]3CNCCO3)n2)c1` [Compound 6.31, 7-(1-ethyl-1H-pyrrol-3-yl)-5-[(1R)-1-[(2S)-morpholin-2-yl]ethoxy]-1,6-naphthyridine], the pEC50 is 5.48 in assay [1] and 7.31 in assay [2].

On to `CC(C)(C)n1cc(-c2cc3ncccc3c(OC[C@H]3O[C@H]4CCN[C@@H]3C4)n2)cn1` (single isomer, unassigned) [Compound 13.11], for which the values for the negative logarithm of the EC50 (pEC50) in assay [1] and in assay [2] were under 5.00 and 5.71, respectively.

As to `C[C@@H](Oc1cc(-c2ccn(C)c2)cc2ncccc12)[C@@H]1CNCC(C)(C)O1` [Compound 11.5, 5-[(1R)-1-[(2S)-6,6-dimethylmorpholin-2-yl]ethoxy]-7-(1-methyl-1H-pyrrol-3-yl)quinoline], the pEC50 in assay [1] is 5.73; in assay [2] it was 7.04.

Turning to `Clc1csc(-c2cc3ncccc3c(OC[C@@H]3CNCCO3)n2)c1` [Compound 2.34, 7-(4-chlorothiophen-2-yl)-5-{[(2S)-morpholin-2-yl]methoxy}-1,6-naphthyridine], the pEC50 was 5.81 in assay [1] and 6.40 in assay [2].

For the compound `CC(C)n1ccc(-c2cc(O[C@H](C)[C@@H]3CNCCO3)c3cccnc3c2)c1` [Compound 7.19, 5-[(1R)-1-[(2S)-morpholin-2-yl]ethoxy]-7-[1-(propan-2-yl)-1H-pyrrol-3-yl]quinoline], the pEC50 in assay [1] was 5.73; in assay [2], 7.44.

On to `O=C1CCn2cc(-c3cc4ncccc4c(OC[C@@H]4CNCCO4)n3)cc21` [Compound 2.78, 6-(5-{[(2S)-morpholin-2-yl]methoxy}-1,6-naphthyridin-7-yl)-2,3-dihydro-1H-pyrrolizin-1-one], for which the figures for the pEC50 in assay [1] and in assay [2] were 5.31 and 6.83, respectively.

Turning to `CCn1ccc(-c2cc(OC[C@@H]3CNCCO3)c3cccnc3c2)c1` [Compound 7.20, 7-(1-ethyl-1H-pyrrol-3-yl)-5-{[(2S)-morpholin-2-yl]methoxy}quinoline], the pEC50 was 5.77 in assay [1] and 7.40 in assay [2].

For the compound `Cn1cc(-c2cc3ncccc3c(OC[C@@H]3CNCC(C)(C)CO3)n2)cn1` [Compound 10.10, 5-{[(2S)-6,6-dimethyl-1,4-oxazepan-2-yl]methoxy}-7-(1-methyl-1H-pyrazol-4-yl)-1,6-naphthyridine], the figures for the pEC50 in assay [1] and in assay [2] were 5.43 and 6.57, respectively.

Turning to `CC[C@H](C)n1cc(-c2cc3ncccc3c(OC[C@@H]3CNCCO3)n2)cn1` [Compound 6.34, 7-{1-[(2S)-butan-2-yl]-1H-pyrazol-4-yl}-5-{[(2S)-morpholin-2-yl]methoxy}-1,6-naphthyridine], the pEC50 was 5.68 in assay [1] and 7.04 in assay [2].

In the case of `CC(C)n1cc(-c2cc(O[C@H](C)[C@@H]3CNCC(C)(C)O3)c3cccnc3c2)cn1` [Compound 11.3, 5-[(1R)-1-[(2S)-6,6-dimethylmorpholin-2-yl]ethoxy]-7-[1-(propan-2-yl)-1H-pyrazol-4-yl]quinoline], the negative logarithm of the EC50 (pEC50) was 6.25 in assay [1] and 7.43 in assay [2].

With `c1cnc2cc(-c3cnn(C4CC4)c3)cc(OC[C@@H]3CNCCO3)c2c1` [Compound 3.3, 7-(1-cyclopropyl-1H-pyrazol-4-yl)-5-{[(2S)-morpholin-2-yl]methoxy} quinoline], the pEC50 was 5.59 in assay [1] and 6.75 in assay [2].

Take `CC(C)(C)n1cc(-c2cc3ncccc3c(O[C@H]3CC[C@@H]4NCCO[C@@H]43)n2)cn1` (relative stereo) [Compound 2.91, 5-[rel-(4aS,7S,7aS)-octahydrocyclopenta[b][1,4]oxazin-7-yloxy]-7-(1-tert-butyl-1H-pyrazol-4-yl)-1,6-naphthyridine]: the pEC50 was 5.98 in assay [1] and 7.29 in assay [2].

With `Cn1cc(-c2cc3ncccc3c(OC[C@@H]3CN[C@H]4CCC[C@H]4O3)n2)cn1` [Compound 2.73, 5-{[(2S,4aS,7aR)-octahydrocyclopenta[b][1,4]oxazin-2-yl]methoxy}-7-(1-methyl-1H-pyrazol-4-yl)-1,6-naphthyridine], the pEC50 is 5.47 in assay [1] and 7.49 in assay [2].

Regarding `CC[C@@H](C)n1cc(-c2cc3ncccc3c(OC[C@@H]3CNCC(C)(C)O3)n2)cn1` [Compound 6.33, 7-{1-[(2R)-butan-2-yl]-1H-pyrazol-4-yl}-5-{[(2S)-6,6-dimethylmorpholin-2-yl]methoxy}-1,6-naphthyridine], the pEC50 is 5.43 in assay [1] and 7.31 in assay [2].

`Clc1ccc(-c2cc3ncccc3c(OC[C@@H]3CNCCO3)n2)s1` [Compound 2.33, 7-(5-chlorothiophen-2-yl)-5-{[(2S)-morpholin-2-yl]methoxy}-1,6-naphthyridine]: the pEC50 is 5.80 in assay [1] and 6.41 in assay [2].

For `CC(C)(C)n1cc(-c2cc3ncccc3c(OCC3CNCCCO3)n2)cn1` (stereo not drawn) [Compound 2.47, 7-(1-tert-butyl-1H-pyrazol-4-yl)-5-[(1,4-oxazepan-2-yl)methoxy]-1,6-naphthyridine], the pEC50 is 5.49 in assay [1] and 7.32 in assay [2].

For the compound `c1cnc2cc(-c3cnn([C@@H]4CCOC4)c3)nc(OC[C@@H]3CNCCO3)c2c1` [Compound 6.45, 5-{[(2S)-morpholin-2-yl]methoxy}-7-{1-[(3R)-oxolan-3-yl]-1H-pyrazol-4-yl}-1,6-naphthyridine], the figures for the pEC50 in assay [1] and in assay [2] were under 6.00 and 7.16, respectively.

In the case of `FC(F)Cn1cc(-c2cc3ncccc3c(OC[C@@H]3CNCCO3)n2)cn1` [Compound 6.6, 7-[1-(2,2-difluoroethyl)-1H-pyrazol-4-yl]-5-{[(2S)-morpholin-2-yl]methoxy}-1,6-naphthyridine], the negative logarithm of the EC50 (pEC50) in assay [1] is 5.72; in assay [2], 7.09.

Take `CC(C)n1cc(-c2cc(OC[C@@H]3CNC[C@@H](C)O3)c3nccnc3c2)cn1` [Compound 12.6, 5-{[(2S,6R)-6-methylmorpholin-2-yl]methoxy}-7-[1-(propan-2-yl)-1H-pyrazol-4-yl]quinoxaline]: the figures for the pEC50 in assay [1] and in assay [2] were 6.32 and 8.00, respectively.

On to `Cn1ccc(-c2cc3ncccc3c(OCC3CNCCCO3)n2)c1` (stereo not drawn) [Compound 2.48, 7-(1-methyl-1H-pyrrol-3-yl)-5-[(1,4-oxazepan-2-yl)methoxy]-1,6-naphthyridine], for which the negative logarithm of the EC50 (pEC50) in assay [1] was 5.39; in assay [2], 6.92.

Turning to `Cc1ccnc2cc(-c3cnn(C(C)C)c3)cc(OC[C@@H]3CNCC(C)(C)O3)c12` (stereo in doubt) [Compound 14.7, 5-[(6,6-dimethylmorpholin-2-yl)methoxy]-4-methyl-7-[1-(propan-2-yl)-1H-pyrazol-4-yl]quinoline], the pEC50 in assay [1] is 6.03; in assay [2] it was 8.62.

`Cn1ccc(-c2cc3ncccc3c(OC[C@@]3(C)CNCCO3)n2)c1` [Compound 10.9, 7-(1-methyl-1H-pyrrol-3-yl)-5-{[(2R)-2-methylmorpholin-2-yl]methoxy}-1,6-naphthyridine]: the pEC50 in assay [1] was 5.15; in assay [2], 6.83.

With `C[C@H](Oc1nc(-c2ccn(C)c2)cc2ncccc12)[C@@H]1CNCC(C)(C)O1` [Compound 2.64, 5-[(1S)-1-[(2S)-6,6-dimethylmorpholin-2-yl]ethoxy]-7-(1-methyl-1H-pyrrol-3-yl)-1,6-naphthyridine], the results for the negative logarithm of the EC50 (pEC50) in assay [1] and in assay [2] were under 5.00 and 6.60, respectively.

Turning to `CC1(C)CNC[C@@H](COc2cc(-c3ccn(C4CC4(F)F)c3)cc3ncccc23)O1` (stereo partly drawn) [Compound 7.8, 7-[1-(2,2-difluorocyclopropyl)-1H-pyrrol-3-yl]-5-{[(2S)-6,6-dimethylmorpholin-2-yl]methoxy}quinoline], the pEC50 is 5.49 in assay [1] and 7.71 in assay [2].

As to `FC1(F)CC1n1ccc(-c2cc(OC[C@@H]3CNCCO3)c3cccnc3c2)c1` (stereo partly drawn) [Compound 7.7, 7-[1-(2,2-difluorocyclopropyl)-1H-pyrrol-3-yl]-5-{[(2S)-morpholin-2-yl]methoxy}quinoline], the pEC50 in assay [1] is 5.36; in assay [2], 7.06.

For the compound `CC(C)n1cc(-c2cc3ncccc3c(OC[C@@]3(C)CNCCO3)n2)cn1` [Compound 10.8, 5-{[(2R)-2-methylmorpholin-2-yl]methoxy}-7-[1-(propan-2-yl)-1H-pyrazol-4-yl]-1,6-naphthyridine], the pEC50 was 5.72 in assay [1] and 7.09 in assay [2].

`CC(C)n1ccc(-c2cc(OC[C@@H]3CNC[C@@H](C)O3)c3nccnc3c2)c1` [Compound 8.23, 5-{[(2S,6R)-6-methylmorpholin-2-yl]methoxy}-7-[1-(propan-2-yl)-1H-pyrrol-3-yl]quinoxaline]: the figures for the negative logarithm of the EC50 (pEC50) in assay [1] and in assay [2] were 6.38 and 8.57, respectively.

As to `Cn1ccc(-c2cc(OC[C@@H]3CNCC4(CC4)O3)c3nccnc3c2)c1` [Compound 12.4, 7-(1-methyl-1H-pyrrol-3-yl)-5-{[(5S)-4-oxa-7-azaspiro[2.5]octan-5-yl]methoxy}quinoxaline], the negative-log EC50 (pEC50) in assay [1] is 5.51; in assay [2] it was 7.56.

For the compound `F/C=C/n1cc(-c2cc3ncccc3c(OC[C@@H]3CNCCO3)n2)cn1` [Compound 6.8, 7-{1-[(1E)-2-fluoroethenyl]-1H-pyrazol-4-yl}-5-{[(2S)-morpholin-2-yl]methoxy}-1,6-naphthyridine], the pEC50 in assay [1] is 5.31; in assay [2], 6.74.

As for `CC(C)(C)n1cc(-c2cc(OC[C@@H]3CNCC4(CC4)O3)c3nccnc3c2)cn1` [Compound 12.3, 7-(1-tert-butyl-1H-pyrazol-4-yl)-5-{[(5S)-4-oxa-7-azaspiro[2.5]octan-5-yl]methoxy}quinoxaline], the pEC50 in assay [1] is 5.89; in assay [2], 7.56.
